Assay [1] in a line: Luminescence Cell-Based/Microorganism Confirmation at Dose of Inhibitors of Trypanosoma cruzi Infection. [Related pubchem assays: 1885, 1968 ]. Format: functional.
A short description of assay [2]: Trypanosoma cruzi growth suppression in host cells – NIH3T3 host cells, beta-gal luminescence, confirmation (AID 2044).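 Further: intracellular parasites grown in NIH/3T3 mouse fibroblasts as host cells; luminescent beta-galactosidase reporter signal from transgenic T. cruzi replicating inside host cells; inhibitors lower the luminescence signal.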 Format: functional, cell-based.
Assay [3] can be described thus: Luminescence Cell-Based Secondary HTS screen to identify cytotoxic compounds of NIH3T3 cells. [Related pubchem assays: 1885, 1968 ]. Format: functional.
A short description of assay [4]: NIH3T3 cell viability loss – ATP luminescence, mouse fibroblasts, counter-screen, dose response (AID 2010).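 Further: cells exposed to compound for about 90 hours before reading.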 Format: functional, cell-based.
Assay [5] addresses T1, Microphthalmia-associated transcription factor (Homo sapiens, UniProt O75030).
T1 sequence (O75030 whole entry): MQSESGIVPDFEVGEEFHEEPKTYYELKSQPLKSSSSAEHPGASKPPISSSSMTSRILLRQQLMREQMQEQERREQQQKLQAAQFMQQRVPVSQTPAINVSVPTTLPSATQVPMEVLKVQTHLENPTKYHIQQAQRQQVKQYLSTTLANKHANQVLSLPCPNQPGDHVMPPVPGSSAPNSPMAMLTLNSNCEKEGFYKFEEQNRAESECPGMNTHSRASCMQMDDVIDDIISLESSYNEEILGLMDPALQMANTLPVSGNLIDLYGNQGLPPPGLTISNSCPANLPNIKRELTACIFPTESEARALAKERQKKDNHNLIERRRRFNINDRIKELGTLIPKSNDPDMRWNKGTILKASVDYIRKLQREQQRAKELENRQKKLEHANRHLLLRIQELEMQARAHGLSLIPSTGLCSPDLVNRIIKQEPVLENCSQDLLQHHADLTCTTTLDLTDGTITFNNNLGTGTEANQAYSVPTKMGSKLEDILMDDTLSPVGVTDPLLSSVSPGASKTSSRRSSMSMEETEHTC
In words: reducers of TRPM1 reporter luminescence, concentration series – cell-based, SK-MEL-5, cherry-picked, set 3, MITF inhibitor project, dose response (AID 493073).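 Further: SK-MEL-5 melanoma cells with luciferase driven by the MITF target TRPM1 promoter.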 Format: functional.

Assay [6] can be described thus: T. cruzi infection blockers in NIH3T3 cells – beta-gal luminescence, NIH3T3 host cells, confirmation (AID 2630). Format: functional, cell-based. The following applies: Mus musculus.
Assay [7] relates to INS1. In words: INS-1E survival protection against cytokine death – cell-based, luminescence, retest, dose response (AID 449756).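 Further: cell death triggered by IL-1 beta plus TNF-alpha plus IFN-gamma mixture; protective hits raise ATP signal compared with cytokine alone wells.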 Format: functional. The note with it: Rattus norvegicus.
Assay [8] addresses T2, Ubiquitin-conjugating enzyme E2 N (Homo sapiens, UniProt P61088).
T2 sequence (P61088 whole entry): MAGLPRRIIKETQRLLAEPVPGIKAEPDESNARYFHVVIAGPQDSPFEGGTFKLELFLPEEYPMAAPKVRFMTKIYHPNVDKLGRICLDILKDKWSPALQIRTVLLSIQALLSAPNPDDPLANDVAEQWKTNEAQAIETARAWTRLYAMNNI
Format: functional.

Assay [9] addresses Lysine-specific demethylase 4A (Homo sapiens, UniProt O75164). In words: inhibition of JMJD2A H3K9me3 demethylation – biochemical, DELFIA europium, cherry-picked samples, selectivity assay for GASC-1 inhibitor project, dose response (AID 488840).
Assay [10] has as its system Escherichia coli. In words: microbe, parasite or virus in culture.
The test system of assay [11] is Escherichia coli. Nature of the assay: microbe, parasite or virus in culture. This is another data set of the same source.
Assay [12] addresses T3, Short transient receptor potential channel 4 (Mus musculus, UniProt Q9QUQ5).
T3 sequence (Q9QUQ5 whole entry): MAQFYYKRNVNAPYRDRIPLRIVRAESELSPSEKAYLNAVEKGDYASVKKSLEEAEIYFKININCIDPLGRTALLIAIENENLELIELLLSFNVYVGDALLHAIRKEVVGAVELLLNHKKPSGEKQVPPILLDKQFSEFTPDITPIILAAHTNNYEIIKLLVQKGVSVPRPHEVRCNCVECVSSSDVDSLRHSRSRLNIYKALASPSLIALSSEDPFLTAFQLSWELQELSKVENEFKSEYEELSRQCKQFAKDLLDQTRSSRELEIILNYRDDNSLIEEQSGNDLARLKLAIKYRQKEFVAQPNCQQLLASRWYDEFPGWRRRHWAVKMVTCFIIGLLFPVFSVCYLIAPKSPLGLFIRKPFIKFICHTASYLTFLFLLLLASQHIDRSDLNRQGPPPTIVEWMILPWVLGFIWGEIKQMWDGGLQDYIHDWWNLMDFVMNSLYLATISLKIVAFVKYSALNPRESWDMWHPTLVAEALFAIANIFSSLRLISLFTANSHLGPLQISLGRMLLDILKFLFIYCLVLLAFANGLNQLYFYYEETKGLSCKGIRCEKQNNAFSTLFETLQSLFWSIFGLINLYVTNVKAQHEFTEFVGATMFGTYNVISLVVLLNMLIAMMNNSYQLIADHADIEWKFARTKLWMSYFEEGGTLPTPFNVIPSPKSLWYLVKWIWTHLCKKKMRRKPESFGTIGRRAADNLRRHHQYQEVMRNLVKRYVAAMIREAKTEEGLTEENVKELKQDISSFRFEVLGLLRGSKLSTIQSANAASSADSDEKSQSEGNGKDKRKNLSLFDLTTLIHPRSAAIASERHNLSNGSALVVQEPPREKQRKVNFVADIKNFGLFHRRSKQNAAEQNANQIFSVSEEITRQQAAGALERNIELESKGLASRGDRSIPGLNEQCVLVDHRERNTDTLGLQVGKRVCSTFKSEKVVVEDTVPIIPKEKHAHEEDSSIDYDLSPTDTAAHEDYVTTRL
Nature of the assay: SAR Analysis for the identification of selective inhibits of the transient receptor potential cation channel C4 (TRPC4): Automated Electrophysiology_2. [Related pubchem assays (depositor defined):AID2256]. Format: functional.

The target in assay [13] is T3, Short transient receptor potential channel 4. Nature of the assay: potency of mouse TRPC4 calcium flux blockers – cell-based, HEK293 TRPC4/mu-opioid, DAMGO stimulus, Fluo-4, dose response (AID 492994). Format: functional.
The subject of assay [14] is INS1. In words: INS-1E mitochondrial potential rescue under cytokines – cell-based, JC-1 fluorescence ratio, dry powder, dose response (AID 488931). The note with it: Rattus norvegicus. Format: functional.
The test system of assay [15] is INS1. In words: beta-cell survival under cytokine stress – INS-1E, ATP luminescence, dry powder, dose response (AID 488844). Format: functional, cell-based. The note with it: Rattus norvegicus.

EC50, AC50 and IC50 data for five molecules are collected here from ChEMBL document CHEMBL1201862, “PubChem BioAssay data set” (2004).

Active and inactive are the calls of the source. A value given as a limit tells only on which side of the number the result lay.

Chain of Lysine-specific demethylase 4A (O75164 whole entry): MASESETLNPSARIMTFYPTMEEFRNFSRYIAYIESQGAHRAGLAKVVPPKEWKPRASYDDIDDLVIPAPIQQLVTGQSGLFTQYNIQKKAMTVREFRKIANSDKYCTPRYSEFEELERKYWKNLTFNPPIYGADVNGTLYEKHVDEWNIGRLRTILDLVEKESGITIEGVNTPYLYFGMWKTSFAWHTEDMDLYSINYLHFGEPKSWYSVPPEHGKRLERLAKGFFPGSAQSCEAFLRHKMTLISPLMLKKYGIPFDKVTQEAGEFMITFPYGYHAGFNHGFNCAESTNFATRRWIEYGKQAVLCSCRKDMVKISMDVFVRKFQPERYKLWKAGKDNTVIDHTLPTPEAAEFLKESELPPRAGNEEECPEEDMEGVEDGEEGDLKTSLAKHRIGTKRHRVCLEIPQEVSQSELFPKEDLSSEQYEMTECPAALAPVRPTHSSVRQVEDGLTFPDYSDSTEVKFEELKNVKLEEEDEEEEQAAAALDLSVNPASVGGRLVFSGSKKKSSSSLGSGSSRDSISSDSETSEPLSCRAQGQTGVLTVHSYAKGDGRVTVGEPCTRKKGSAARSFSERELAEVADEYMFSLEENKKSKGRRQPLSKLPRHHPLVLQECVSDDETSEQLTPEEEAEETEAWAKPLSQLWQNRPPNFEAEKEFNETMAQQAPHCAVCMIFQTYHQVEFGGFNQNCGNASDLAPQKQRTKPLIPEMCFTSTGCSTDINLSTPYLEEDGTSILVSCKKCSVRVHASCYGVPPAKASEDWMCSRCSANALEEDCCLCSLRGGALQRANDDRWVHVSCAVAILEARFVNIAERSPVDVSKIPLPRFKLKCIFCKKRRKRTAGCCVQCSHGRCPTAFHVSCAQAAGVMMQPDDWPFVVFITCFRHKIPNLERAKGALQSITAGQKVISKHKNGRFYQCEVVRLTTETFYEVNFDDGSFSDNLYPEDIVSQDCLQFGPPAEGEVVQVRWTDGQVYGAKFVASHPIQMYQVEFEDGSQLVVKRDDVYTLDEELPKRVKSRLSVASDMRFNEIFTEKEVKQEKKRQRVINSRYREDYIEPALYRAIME

In the case of `Cc1ccc(NC(=O)CCC(=O)N/N=C/c2ccc([N+](=O)[O-])o2)cc1C`, the EC50 in assay [1] is 0.032 µM (active); in assay [2], < 0.1 µM (active); in assay [3], > 195 µM (not active); in [4] it was > 30 µM (not active); in [6] it was 0.032 µM (active); in the assay “cells”, 0.016 µM (active). Also, the AC50 was 6.25 µM (active) in [5] and 7.44 µM (active) with INS1 [7].

Regarding `C[C@@H](CN1CCC[C@H]1CN1C(N)=NC[C@@H]1Cc1ccccc1)N1C[C@@H](Cc2ccccc2)N(CCc2ccc(Cl)c(Cl)c2)C1=N`, the IC50 in [8] was > 20 µM (inactive). In addition, the AC50 was 9.21 µM (active) in assay [9], 15.6 µM (active) with Escherichia coli [10] and 24.1 µM (active) with Escherichia coli [11].

Take `CCN(CC)c1cc(C)c2ccccc2n1`: the IC50 in assay [12] was 7.54 µM (active); in assay [13] it was 5.24 µM (active).

For the molecule `COc1ccc(S(=O)(=O)N(C)C[C@@H]2Oc3c(NC(=O)Nc4ccc5c(c4)OCO5)cccc3C(=O)N([C@@H](C)CO)C[C@H]2C)cc1`, the AC50 in the assay with INS1 [14] is 98.3 µM (active).

Turning to `COc1ccc(S(=O)(=O)N(C)C[C@@H]2Oc3c(NC(=O)Nc4ccc(F)cc4)cccc3C(=O)N([C@H](C)CO)C[C@H]2C)cc1`, in the assay on INS1 [15], the AC50 was 41.7 µM (active).
